Laboratory results reported in patent US20090203750A1, “5-HT2C Receptor Agonists as Anorectic Agents” (priority 2005, published 2009).
Read-outs that look alike come from different tables or passages of the source.

Columns and labels:
MOA = conditions: in vivo in rats, tryptamine potentiation test; Kaiser / Zirkel 1962; cited from earlier work
human 5-HT2B receptor = target: T1, human 5-HT2B receptor (Homo sapiens, UniProt P41595); test: Functional activity by Ca++-flux (intracellular calcium mobilization), 5-HT2B; type: cell-based; conditions: for EC50: Ca++-flux, HEK-293 cells, NA = not active, read-out: 5-HT2B human EC50
T1 construct: expressed in transfected cells; host or cells: HEK293 (ATCC CRL-1573), retroviral infection with pBabepuro-FLAG-h5-HT2BR, polyclonal line
T1 sequence (P41595 whole entry): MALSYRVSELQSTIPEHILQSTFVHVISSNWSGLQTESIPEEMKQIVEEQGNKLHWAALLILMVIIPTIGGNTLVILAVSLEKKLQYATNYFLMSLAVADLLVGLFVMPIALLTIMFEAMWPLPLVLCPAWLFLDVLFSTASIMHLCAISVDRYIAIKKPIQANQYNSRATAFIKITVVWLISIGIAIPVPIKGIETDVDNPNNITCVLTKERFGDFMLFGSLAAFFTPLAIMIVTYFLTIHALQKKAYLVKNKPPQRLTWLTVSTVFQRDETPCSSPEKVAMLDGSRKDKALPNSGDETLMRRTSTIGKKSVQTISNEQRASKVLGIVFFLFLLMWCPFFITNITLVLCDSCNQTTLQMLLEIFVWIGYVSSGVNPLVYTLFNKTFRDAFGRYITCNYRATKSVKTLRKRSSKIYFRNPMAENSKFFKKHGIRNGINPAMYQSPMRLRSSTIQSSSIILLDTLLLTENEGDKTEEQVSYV

human 5-HT2A receptor = target: T2, human 5-HT2A receptor (Homo sapiens, UniProt P28223); test: Functional activity by Ca++-flux (intracellular calcium mobilization), 5-HT2A; type: cell-based; conditions: for EC50: Ca++-flux, HEK-293 cells, NA = not active
T2 construct: expressed in transfected cells; host or cells: HEK-293
T2 sequence (P28223 whole entry): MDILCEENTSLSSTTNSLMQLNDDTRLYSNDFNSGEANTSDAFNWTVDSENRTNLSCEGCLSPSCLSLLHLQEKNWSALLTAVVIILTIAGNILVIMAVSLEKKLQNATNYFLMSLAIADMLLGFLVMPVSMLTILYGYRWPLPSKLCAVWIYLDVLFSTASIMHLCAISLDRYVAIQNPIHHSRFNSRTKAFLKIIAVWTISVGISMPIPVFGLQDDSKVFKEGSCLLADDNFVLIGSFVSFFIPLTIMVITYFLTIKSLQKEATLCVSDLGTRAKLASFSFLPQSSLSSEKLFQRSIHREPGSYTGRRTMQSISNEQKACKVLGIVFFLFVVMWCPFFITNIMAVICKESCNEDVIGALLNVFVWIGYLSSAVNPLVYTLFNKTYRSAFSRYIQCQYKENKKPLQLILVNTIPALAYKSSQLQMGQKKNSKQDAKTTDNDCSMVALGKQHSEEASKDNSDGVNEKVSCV
Description: The functional activity of the compounds for the human 5-HT2A, human 5-HT2B, and human 5-HT2C receptors is determined by measurement of Ca++-flux as detailed in the Examples, in transiently transfected HEK-293 cells and the results are summarized in Table I. Structures of compounds listed in Table I are given in Scheme 15.
(§1) The functional activity of compounds for the human 5-HT2A, human 5-HT2B, and human 5-HT2C receptors as agonists, partial agonists and antagonists is determined by measurement of Ca++-flux. The results are summarized in Table 1 where EC50 for different receptors are given (nM) and the ratio of activities 2A/2C and 2B/2C are also given. As noted above, other methods for assessing agonist/antagonist function of compounds for 5-HT2 family receptors are known in the art.
(§2) For these studies stably expressing lines of h5-HT2A, h5-HT2B, and h5-HT2C receptors are prepared in HEK-293 cells. For the h5-HT2A and h5-HT2C-INI receptors, stably expressing HEK-293 cell lines were constructed as previously described using a pIRES-NEO vector system (See: Rauser et al, J Pharmacol Exp Ther 299: 83-89, 2001).
(§3) Stable cell lines were plated with ˜40,000 cells/well into uncoated (3T3 cells) or poly-L-lysine coated (HEK293 cells) 96-well plates in DMEM supplemented with 5% dialyzed FBS. 16-24 hrs post-plating, the medium was aspirated and replaced with 30 μl/well of Calcium Assay Kit Component A Dye (Molecular Devices; Sunnyvale, Calif.) dissolved in 30 ml/bottle of assay buffer (2.5 mM probenecid, 20 mM Hepes, and 1× Hanks' Balanced Salt Solution (Invitrogen; Carlsbad, Calif.) (138 mM NaCl, 5.3 mM KCl, 1.3 mM CaCl2, 0.49 mM MgCl2, 0.41 mM MgSO4, 0.44 mM KH2PO4, 0.34 mM Na2HPO4) pH 7.4. Plates were incubated in the dye for 1 hr at 37° C. Dilutions were made in assay buffer as 2× stocks and added to 96-well drug plates. Fluorometric imaging was performed using a FlexStation II plate reader (Molecular Devices) reading the plate at 1.5 second intervals for 1 min. After establishing a fluorescent baseline (excitation at 485 nm and emission at 525 nm, using a […] cutoff), the FlexStation II automatically transferred 30 μl of 2× drug stocks from the drug plate to the cell plate at the 20 second time point with reading for another 40 seconds. Peak relative fluorescence units (RFU) were subtracted from baseline RFUs using SoftMax Pro (Molecular Devices) and values were imported into GraphPad Prism version 4.03 (GraphPad Software; San Diego, Calif.) for analysis. Ca++-flux studies are very convenient for initial screening of large numbers of compounds for agonist activity.
Compounds are resuspended in DMSO at a stock concentration of 2-15 mM and, for a typical agonist screen, are diluted in assay buffer to a final 2× concentration of 20 μM into drugs plates. Compounds are added in duplicate to cell plates using the FlexStation II as described to identify agonists, defined as having >10% of maximal 5-HT response. […] Generally, screens are performed twice with each determination being made in duplicate. Typical Z′-factor (Zhang et al., 1999) values for agonist screens ranged from 0.61-0.79 (5-HT2AR), 0.42-0.81 (5-HT2BR) and 0.38-0.72 (5-HT2CR); these Z′-factor values are adequate for screening studies in which N=2 determinations are made and the screens replicated for a total of N=4 determinations.
(§4) Compounds identified by primary screens to be agonists are subsequently used in concentration-response experiments to verify the initial observations and obtain agonist potencies. Concentration-response studies are performed in triplicate or quadruplicate at each concentration and repeated three times. Baseline-subtracted RFU values imported into GraphPad Prism are analyzed by non-linear regression to obtain pEC50 values, and normalized to maximal 5-HT response to obtain relative efficacies.

human 5-HT2C receptor = target: T3, human 5-HT2C receptor (Homo sapiens, UniProt P28335); test: Functional activity by Ca++-flux (intracellular calcium mobilization), 5-HT2C; type: cell-based; conditions: for EC50: Ca++-flux, HEK-293 cells, NA = not active, read-out: 5-HT2C human EC50; for 2A/2C ratio: ratio of EC50 5-HT2A / 5-HT2C; for 2B/2C ratio: ratio of EC50 5-HT2B / 5-HT2C
T3 construct: expressed in transfected cells; host or cells: HEK-293
T3 sequence (P28335 33-458): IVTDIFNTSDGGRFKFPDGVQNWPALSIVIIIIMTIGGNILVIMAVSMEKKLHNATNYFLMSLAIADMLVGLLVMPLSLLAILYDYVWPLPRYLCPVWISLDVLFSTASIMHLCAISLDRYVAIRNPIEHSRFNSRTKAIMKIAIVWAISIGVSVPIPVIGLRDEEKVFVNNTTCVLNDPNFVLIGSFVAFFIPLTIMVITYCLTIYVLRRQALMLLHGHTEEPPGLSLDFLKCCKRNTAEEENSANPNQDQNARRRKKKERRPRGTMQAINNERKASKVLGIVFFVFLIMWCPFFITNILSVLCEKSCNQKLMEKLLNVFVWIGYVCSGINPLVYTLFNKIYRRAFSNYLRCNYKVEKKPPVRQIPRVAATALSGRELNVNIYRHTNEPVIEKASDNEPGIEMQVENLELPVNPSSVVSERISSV
Description: as §1, with “The results are summarized in Table 1 where EC50 for different receptors are given (nM) and the ratio of activities 2A/2C and 2B/2C are also given.” left out
as §2, §3
Compounds are resuspended in DMSO at a stock concentration of 2-15 mM and, for a typical agonist screen, are diluted in assay buffer to a final 2× concentration of 20 μM into drugs plates. Compounds are added in duplicate to cell plates using the FlexStation II as described to identify agonists, defined as having >10% of maximal 5-HT response. […] Generally, screens are performed twice with each determination being made in duplicate.
as §4

6 Hz seizure model = 6 Hz seizure model in mice; type: in vivo; conditions: 100 mg/kg i.p.

Row | Substance | EC50 (human 5-HT2B receptor) [µM] | EC50 (human 5-HT2A receptor) [µM] | activity at 5-HT2C receptor (human 5-HT2C receptor) | EC50 (human 5-HT2C receptor) [µM] | 2A/2C ratio (human 5-HT2C receptor) | 2B/2C ratio (human 5-HT2C receptor) | further results
1 | trans-aminomethyl-2-phenylcyclopropylamine |  |  |  |  |  |  | inhibition of MOA (MOA): not to inhibit MOA
2 | cis-(±)-(2-Phenyl-cyclopropyl)-methylamine Hydrochloride [TKU-II-19] | 0.308 | 0.705 | poorly active | 0.152 | 4.64 | 2.03 | activity at 5-HT2B receptor (human 5-HT2B receptor): poorly active; activity at 5-HT2A receptor (human 5-HT2A receptor): poorly active
3 | trans-(±)-[2-(4′-Trifluoromethyl-biphenyl-4-yl)-cyclopropyl]-methylamine Hydrochloride [TKU-II-58] | 1.27 | 3.41 |  | 0.226 | 15.1 | 5.62 | 
4 | trans-(±)-[2-(2-Bromo-phenyl)-cyclopropyl]-methylamine Hydrochloride [TKU-II-78] | 0.094 | 0.0295 | partial agonist activity | 0.0018 | 16.4 | 52.2 | Emax at the 5-HT2C receptor (human 5-HT2C receptor; partial agonist activity): 58%
5 | trans-(±)-[2-(4′-Fluoro-biphenyl-4-yl)-cyclopropyl]-methylamine Hydrochloride [TKU-II-57] | 624 | 1030 |  | 10.2 | 101.1 | 61 | 
6 | trans-(±)-(2-Phenyl-cyclopropyl)-methylamine Hydrochloride [TKU-II-17] |  |  |  |  |  |  | EC50 (human 5-HT2B receptor; Hydrochloride): 0.0186 µM; motor impairment (6 Hz seizure model; 15-60 minutes after dosing): minimal motor impairment; animals protected from seizure (6 Hz seizure model; after four hours): three of the four; EC50 (human 5-HT2A receptor; Hydrochloride): 0.0497 µM; EC50 (human 5-HT2C receptor; Hydrochloride): 0.0096 µM; 2A/2C ratio (human 5-HT2C receptor; Hydrochloride): 5.18; 2B/2C ratio (human 5-HT2C receptor; Hydrochloride): 1.94
